The conditions of data set [1]: ether bond.
The target in data set [2] is T1, myeloperoxidase (Homo sapiens (Human), UniProt P05164). Kind of data set: MPO Peroxidation Assay (Amplex Red Assay). Particulars: MPO peroxidation activity, 100 mM KPi (pH 7.4), ten minute preincubation; potency ranges defined in nM. The format is biochemical. On the procedure: MPO Peroxidation Assay (Amplex Red Assay)
MPO peroxidation activity was measured in 100 mM KPi (pH 7.4) by utilizing the non-fluorescent reagent Amplex Red (Invitrogen Cat. #A12222) which can be oxidized to the highly fluorescent resorufin. Amplex Red is oxidized by the peroxidase action of MPO to resorufin. Reactions were carried out in 50 μL total volume by adding a 25 μL mixture of 200 pM myeloperoxidase and 40 nM H2O2 (Sigma #349887) to 100 nL inhibitor in 100% DMSO in a 384 well Perkin Elmer Optiplate. Enzyme and compound were preincubated for ten minutes at room temperature.
After the ten minute preincubation, 25 μL of an Amplex Red mixture containing 200 μM Amplex Red and 10 mM H2O2 was added to the plate. Kinetic determinations were carried out immediately on a Perkin Elmer Envision (15 minute kinetic read, Ex: 535 nm, Em: 590 nm).
(§1) IC50 values were calculated by determining the slope of the linear portion of the kinetic trace (180-540 secs), and using that calculated slope to determine % inhibition occurring at each concentration of inhibitor using the following equation:
(§2) [formula] where A=minimal Y value (activity level of inhibited sample), B=maximal Y value (activity level of uninhibited sample), C=Log IC50, D=Hill Slope, x=concentration of inhibitor. MPO Chlorination Assay (APF Assay) MPO chlorination activity was measured in 100 mM KPi (pH 7.4) by utilizing the non-fluorescent reagent Aminophenyl fluorescein (APF, Invitrogen Cat. #A36003). APF is cleaved by (—OCl) to yield the fluorescent compound fluorescein. Reactions were carried out in 50 μL total volume by adding a 25 μL mixture of 200 pM myeloperoxidase and 120 mM NaCl to 100 nL inhibitor in 100% DMSO in a 384 well, non-binding surface clear bottom plate (Corning #3655). Enzyme, inhibitor, and chloride were preincubated for ten minutes at room temperature.

In data set [3] the target is T1, myeloperoxidase. The data set is described as follows: MPO Chlorination Assay (APF Assay). In kind it is biochemical. To be noted: MPO chlorination activity, 100 mM KPi (pH 7.4), 120 mM NaCl, ten minute preincubation; potency ranges defined in nM. On the procedure: as §2
After the ten minute preincubation, 25 μL of an APF mixture containing […], 120 mM NaCl and 10 μM H2O2 was added to the plate using the internal dispensing system of a Hammatsu FDSS 6000. Kinetic determinations were carried out immediately on the FDSS 6000 (3 minute kinetic read, 1 read every second, ex: 485 nm, em: 535 nm). IC50 values for inhibitors were calculated by taking the slope of the linear portion of the kinetic measurement (20 seconds to 80-120 secs).
as §1
[formula] where A=minimal Y value (activity level of inhibited sample), B=maximal Y value (activity level of uninhibited sample), C=Log IC50, D=Hill Slope, x=concentration of inhibitor. EPX Bromination Assay

Where two headings read alike, the source gives them in different places.

T1 sequence (P05164 49-745): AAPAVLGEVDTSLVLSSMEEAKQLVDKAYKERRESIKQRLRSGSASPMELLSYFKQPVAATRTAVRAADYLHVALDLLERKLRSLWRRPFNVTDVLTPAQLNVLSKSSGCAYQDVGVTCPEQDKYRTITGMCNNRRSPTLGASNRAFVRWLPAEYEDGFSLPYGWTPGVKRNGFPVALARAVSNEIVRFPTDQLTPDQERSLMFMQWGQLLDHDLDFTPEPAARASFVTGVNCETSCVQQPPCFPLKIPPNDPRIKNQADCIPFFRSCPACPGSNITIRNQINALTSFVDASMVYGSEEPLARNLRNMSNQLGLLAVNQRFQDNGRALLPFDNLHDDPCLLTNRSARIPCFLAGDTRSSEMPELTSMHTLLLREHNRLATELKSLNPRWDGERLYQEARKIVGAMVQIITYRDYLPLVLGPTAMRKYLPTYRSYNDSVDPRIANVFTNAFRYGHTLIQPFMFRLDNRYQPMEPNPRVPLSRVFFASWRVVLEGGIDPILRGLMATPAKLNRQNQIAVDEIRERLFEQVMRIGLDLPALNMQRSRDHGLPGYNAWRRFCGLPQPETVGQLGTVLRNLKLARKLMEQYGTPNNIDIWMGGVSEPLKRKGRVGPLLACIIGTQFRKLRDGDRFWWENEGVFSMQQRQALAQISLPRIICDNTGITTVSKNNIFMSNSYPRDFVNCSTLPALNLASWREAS

As to `CC(C)(C)OC(=O)N1CC=C(c2cc(N)nc3[nH]nnc23)c2cnn(c2)Cc2cccc(c2)O[C@@H]2CC13CCC2(c1ccccc1)CC3`, the ring closure, isolated yield in data set [1] (from CC(C)(C)OC(=O)N(C/C=C(\c1cnn(Cc2cccc(O)c2)c1)c1cc(N)nc2[nH]nnc12)C12CCC(c3ccccc3)(CC1)[C@@H](O)C2, 15-membered ring, cyanomethylenetributylphosphorane, toluene, 5.0 mM, 100.0 °C) came out at 85%.

Take `c1ccc(C(Nc2cc(C3CCNCc4cccc(c4)COc4cccc(c4)Cn4cc3cn4)c3nnn(C(c4ccccc4)(c4ccccc4)c4ccccc4)c3n2)(c2ccccc2)c2ccccc2)cc1` (stereo not shown): the ring closure, isolated yield in data set [1] (from OCc1cccc(CNCCC(c2cnn(Cc3cccc(O)c3)c2)c2cc(NC(c3ccccc3)(c3ccccc3)c3ccccc3)nc3c2nnn3C(c2ccccc2)(c2ccccc2)c2ccccc2)c1, 17-membered ring, PPh3/DIAD, THF) was 94%.

The IC50 is the concentration that inhibits the measured activity by half. Low values mean inhibition by little substance, high ones a need for much substance. Regarding `Nc1cc(C2CCNCC3(CCCC3)COc3cccc(c3)Cn3cc2cn3)c2nn[nH]c2n1` (stereo not shown) [Example 22, 7-{14′-Oxa-3′,4′,10′-triazaspiro[cyclopentane-1,12′-tricyclo[13.3.1.1^3,^6]icosane]-1′(19′),4′,6′(20′),15′,17′-pentaen-7′-yl}-3H-[1,2,3]triazolo[4,5-b]pyridin-5-amine], the figures for the IC50 against myeloperoxidase [2] and at myeloperoxidase [3] were 101 to 999 nM and 1 to 100 nM, respectively.

With `Nc1cc(C2CCNCc3cc(cc(OC(F)(F)F)c3)COc3cccc(c3)Cn3cc2cn3)c2nn[nH]c2n1` (stereo not shown) [Example 23, 7-[14-(Trifluoromethoxy)-18-oxa-3,4,10-triazatetracyclo[17.3.1.1^3,^6.1^12,^1^6]pentacosa-1(23),4,6(25),12,14,16(24),19,21-octaen-7-yl]-3H-[1,2,3]triazolo[4,5-b]pyridin-5-amine], the IC50 at myeloperoxidase [2] lay in the range of 1000 to 10000 nM; against myeloperoxidase [3] it was 101 to 999 nM.

Consider `Nc1cc(C2CCNCc3ccc(F)c(c3)COc3ccc(F)c(c3)Cn3cc2cn3)c2nn[nH]c2n1` (stereo not shown) [Example 24, 7-{15,22-Difluoro-18-oxa-3,4,10-triazatetracyclo[17.3.1.1^3,^6.1^12,^1^6]pentacosa-1(23),4,6(25),12,14,16(24),19,21-octaen-7-yl}-3H-[1,2,3]triazolo[4,5-b]pyridin-5-amine], for which the results for the IC50 against myeloperoxidase [2] and against myeloperoxidase [3] were 101 to 999 nM and 1 to 100 nM, respectively.

On to `Nc1cc([C@@H]2CCN[C@H]3C[C@H](Cc4ccccc4)[C@@H](C3)Oc3cccc(c3)Cn3cc2cn3)c2nn[nH]c2n1` [Example 25, 7-[(3R,4S,6S,10S)-4-Benzyl-2-oxa-7,13,14-triazatetracyclo[14.3.1.1^3,^6.1^11,^1^4]docosa-1(19),11(21),12,16(20),17-pentaen-10-yl]-3H-[1,2,3]triazolo[4,5-b]pyridin-5-amine], for which the IC50 against myeloperoxidase [2] and on myeloperoxidase [3] was 1 to 100 nM each time.

On to `Nc1cc([C@H]2CCN[C@H]3C[C@H](Cc4ccccc4)[C@@H](C3)Oc3cccc(c3)Cn3cc2cn3)c2nn[nH]c2n1` [Example 26, 7-[(3R,4S,6S,10R)-4-Benzyl-2-oxa-7,13,14-triazatetracyclo[14.3.1.1^3,^6.1^11,^1^4]docosa-1(19),11(21),12,16(20),17-pentaen-10-yl]-3H-[1,2,3]triazolo[4,5-b]pyridin-5-amine], for which the IC50 on myeloperoxidase [2] and against myeloperoxidase [3] was 1 to 100 nM in each case.

Regarding `Nc1cc(C2CCNC34CCC(c5ccccc5)(CC3)[C@H](C4)Oc3cccc(c3)Cn3cc2cn3)c2nn[nH]c2n1` (stereo partly drawn) [Example 27, 7-[(17S)-18-Phenyl-16-oxa-2,8,9-triazapentacyclo[16.2.2.1^1,^1^7.1^6,^9.1^11,^1^5]pentacosa-6(25),7,11(24),12,14-pentaen-5-yl]-3H-[1,2,3]triazolo[4,5-b]pyridin-5-amine], the IC50 on myeloperoxidase [2] and against myeloperoxidase [3] was 1 to 100 nM each time.

With `Nc1cc(C2CCNC34CCC(c5ccccc5)(CC3)[C@@H](C4)Oc3cccc(c3)Cn3cc2cn3)c2nn[nH]c2n1` (stereo partly drawn) [Example 28, 7-[(17R)-18-Phenyl-16-oxa-2,8,9-triazapentacyclo[16.2.2.1^1,^1^7.1^6,^9.1^11,^1^5]pentacosa-6(25),7,11(24),12,14-pentaen-5-yl]-3H-[1,2,3]triazolo[4,5-b]pyridin-5-amine], the IC50 against myeloperoxidase [2] is 1000 to 10000 nM; at myeloperoxidase [3], 1 to 100 nM.

Consider `Nc1cc(C2CCNC34CCC(c5ccccc5)(CC3)[C@H](C4)Oc3cccc(c3)CCn3cc2cn3)c2nn[nH]c2n1` (stereo partly drawn) [Example 29, 7-[(18S)-19-Phenyl-17-oxa-2,8,9-triazapentacyclo[17.2.2.1^1,^1^8.1^6,^9.1^12,^1^6]hexacosa-6(26),7,12(25),13,15-pentaen-5-yl]-3H-[1,2,3]triazolo[4,5-b]pyridin-5-amine], for which the IC50 against myeloperoxidase [2] and at myeloperoxidase [3] was 1 to 100 nM in each case.

As to `Nc1cc(C2CCNCCc3cccc(c3)-c3cccc(c3)Cn3cc2cn3)c2nn[nH]c2n1` (stereo not shown) [Example 30, 7-{8,9,15-triazatetracyclo[16.3.1.1^2,^6.1^8,^11]tetracosa-1(22),2,4,6(24),9,11(23),18,20-octaen-12-yl}-3H-[1,2,3]triazolo[4,5-b]pyridin-5-amine], the IC50 was 101 to 999 nM at myeloperoxidase [2] and 1 to 100 nM against myeloperoxidase [3].

`Nc1cc(C2CCN3C[C@H](Cc4ccccc4)[C@@H](C3)Oc3cccc(c3)Cn3cc2cn3)c2nn[nH]c2n1` (stereo partly drawn) [Example 31, 7-[(3S,4S)-4-Benzyl-2-oxa-6,12,13-triazatetracyclo[13.3.1.1^3,^6.1^1^0,^13]henicosa-1(18),10(20),11,15(19),16-pentaen-9-yl]-3H-[1,2,3]triazolo[4,5-b]pyridin-5-amine]: the IC50 lay within 101 to 999 nM against myeloperoxidase [2] and 1 to 100 nM against myeloperoxidase [3].

Regarding `Nc1cc(C2CCN[C@H]3CC[C@@H](COc4cccc(c4)Cn4cc2cn4)C3)c2nn[nH]c2n1` (stereo partly drawn) [Example 32, 7-[(11S,14R)-16-Oxa-3,4,10-triazatetracyclo[15.3.1.1^3,^6.1^11,^1^4]tricosa-1(21),4,6(23),17,19-pentaen-7-yl]-3H-[1,2,3]triazolo[4,5-b]pyridin-5-amine], the IC50 on myeloperoxidase [2] was in the range of 101 to 999 nM; against myeloperoxidase [3] it was 1 to 100 nM.

On to `Nc1cc(C2CCNCC(=O)N(CCc3ccccc3)Cc3cccc(c3)Cn3cc2cn3)c2nn[nH]c2n1` (stereo not shown) [Example 33, 7-{5-Amino-3H-[1,2,3]triazolo[4,5-b]pyridin-7-yl}-13-(2-phenylethyl)-3,4,10,13-tetraazatricyclo[13.3.1.1^3,^6]icosa-1(19),4,6(20),15,17-pentaen-12-one], for which the IC50 on myeloperoxidase [2] was in the range of 101 to 999 nM; on myeloperoxidase [3], 1 to 100 nM.

For `Nc1cc(C2CCN3C[C@H](COc4cccc(c4)Cn4cc2cn4)[C@@H](c2ccccc2)C3)c2nn[nH]c2n1` (stereo partly drawn) [Example 34, 7-[(12S,13R)-12-Phenyl-15-oxa-3,4,10-triazatetracyclo[14.3.1.1^3,^6.1^1^0,^13]docosa-1(20),4,6(22),16,18-pentaen-7-yl]-3H-[1,2,3]triazolo[4,5-b]pyridin-5-amine], the values for the IC50 on myeloperoxidase [2] and at myeloperoxidase [3] were 1000 to 10000 nM and 101 to 999 nM, respectively.

Take `NC(=O)CN1CCc2cccc(c2)Oc2cccc(c2)Cn2cc(cn2)C(c2cc(N)nc3[nH]nnc23)CC1` (stereo not shown) [Example 35, 2-(7-{15-Amino-3H-[1,2,3]triazolo[4,5-b]pyridin-7-yl}-18-oxa-3,4,10-triazatetracyclo[17.3.1.1^3,^6.1^13,^17]pentacosa-1(23),4,6(25),13,15,17(24),19,21-octaen-10-yl)acetamide]: the IC50 against myeloperoxidase [2] and against myeloperoxidase [3] was 1000 to 10000 nM in each case.

In the case of `Nc1cc(C2CCNCC(F)(F)c3cccc(c3)Oc3cccc(c3)Cn3cc2cn3)c2nn[nH]c2n1` (stereo not shown) [Example 36, 7-{12,12-Difluoro-18-oxa-3,4,10-triazatetracyclo[17.3.1.1^3,^6.1^13,^1^7]pentacosa-1(23),4,6(25),13,15,17(24),19,21-octaen-7-yl}-3H-[1,2,3]triazolo[4,5-b]pyridin-5-amine], the IC50 lay within 1000 to 10000 nM at myeloperoxidase [2] and 1 to 100 nM against myeloperoxidase [3].

On to `COCCN1CCc2cccc(c2)Oc2cccc(c2)Cn2cc(cn2)C(c2cc(N)nc3[nH]nnc23)CC1` (stereo not shown) [Example 37, 7-[10-(2-Methoxyethyl)-18-oxa-3,4,10-triazatetracyclo[17.3.1.1^3,^6.1^13,^1^7]pentacosa-1(23),4,6(25),13,15,17(24),19,21-octaen-7-yl]-3H-[1,2,3]triazolo[4,5-b]pyridin-5-amine], for which the IC50 against myeloperoxidase [2] fell in the range of 1000 to 10000 nM; against myeloperoxidase [3] it was 101 to 999 nM.

(Values after US10577383B2, “Macrocyclic inhibitors of myeloperoxidase” (BRISTOL-MYERS SQUIBB COMPANY, priority 2016, dated 2020).)
